The values that follow are results of earlier work, collected in PMC4264749, “Phlebotomy Treatment for Elimination of Perfluoroalkyl Acids in a Highly Exposed Family: A Retrospective Case-Series” (PLoS ONE, 2014).

The conditions of this data set: cited from earlier work.

Turning to cholestyramine, the “facilitating removal / elimination of PFAAs” value is recorded as “successful”. In addition, the “PFOA levels in users compared to non-users” value (individuals using it for other medical reasons, West Virginia drinking water contamination) is recorded as “significantly lower”.
